Our source for the EC50 values is patent publication US9018208B2, “Heterocycles as potassium channel modulators” (Icagen Inc., priority 2007, dated 2015).

The first experiment relates to SH-SY5Y M-currents (KCNQ2, KCNQ3 and KCNQ5). In words: SH-SY5Y native cell line FLIPR assay (voltage-sensitive dye DiBAC). In kind it is cell-based, mouse neuroblastoma, rat glioma hybrid cell line. Particulars: FLIPR assay, SH-SY5Y native cell line; Table 1; read-out: SH-SY5Y EC50. A digest of the protocol: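 Response is peak DiBAC fluorescence change, normalised to the maximum from a positive control agent, sampled every 30 s over 25 min. Before compound addition, SH-SY5Y cells differentiated with PGE1 plus isomethylbutylxanthine were dye-loaded for 1 h in EBSS with […] DiBAC.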
On to `O=C(Nc1nc2ccc(C(F)(F)F)cn2c1C1CC1)C1CC1(F)F` (stereo not drawn) [Compound 85, N-(3-cyclopropyl-6-(trifluoromethyl)imidazo[1,2-a]pyridin-2-yl)-2,2-difluorocyclopropanecarboxamide], for which the EC50 lay within 500 to 3000 nM. Regarding `Cc1cccc2nc(NC(=O)CC(C)(C)C)c(C3CC3)n12` [Compound 81, N-(3-cyclopropyl-5-methylimidazo[1,2-a]pyridin-2-yl)-3,3-dimethylbutanamide], the EC50 fell in the range of 3000 to 10000 nM. For `O=C(Nc1nc2ccc(C(F)(F)F)cn2c1CC1CCCCC1)C1CCCC1` [Compound 52, N-(3-(cyclohexylmethyl)-6-(trifluoromethyl)imidazo[1,2-a]pyridin-2-yl)cyclopentanecarboxamide], the EC50 was less than 500 nM.

For `CC(C)(C)CC(=O)Nc1nc2ccc(F)cn2c1CC1CCCCC1` [Compound 66, N-(3-(cyclohexylmethyl)-6-fluoroimidazo[1,2-a]pyridin-2-yl)-3,3-dimethylbutanamide], the EC50 is less than 500 nM. On the same count and under the same terms, for `O=C(Cc1ccc(F)cc1)Nc1nc2ccc(C(F)(F)F)cn2c1C1CC1` [Compound 70, N-(3-cyclopropyl-6-(trifluoromethyl)imidazo[1,2-a]pyridin-2-yl)-2-(4-fluorophenyl)acetamide] the value was less than 500 nM; for `CC1(CC(=O)Nc2nc3ccc(C(F)(F)F)cn3c2CC2CCCCC2)CCCC1` [Compound 46, N-(3-(cyclohexylmethyl)-6-(trifluoromethyl)imidazo[1,2-a]pyridin-2-yl)-2-(1-methylcyclopentyl)acetamide], less than 500 nM; for `CC(C)(C)CC(=O)Nc1nc2ccccn2c1CC(C)(C)C` [Compound 88, 3,3-dimethyl-N-(3-neopentylimidazo[1,2-a]pyridin-2-yl)butanamide], 500 to 3000 nM. `Cc1ccc2nc(NC(=O)CC(C)C(F)(F)F)c(C3CC3)n2n1` (stereo not drawn) [Compound 76, N-(3-cyclopropyl-6-methylimidazo[1,2-b]pyridazin-2-yl)-4,4,4-trifluoro-3-methylbutanamide]: the EC50 was in the range of 3000 to 10000 nM. As for `CC(C)(C)Cc1c(NC(=O)Cc2cccc(OC(F)(F)F)c2)nc2ccc(C(F)(F)F)cn12` [Compound 25, N-(3-neopentyl-6-(trifluoromethyl)imidazo[1,2-a]pyridin-2-yl)-2-(3-(trifluoromethoxy)phenyl)acetamide], the EC50 is less than 500 nM. Take `Cc1cccc2nc(NC(=O)C(F)(F)F)cn12` [Compound 8, 2,2,2-trifluoro-N-(5-methylimidazo[1,2-a]pyridin-2-yl)acetamide]: the concentration for a half-maximal effect (EC50) is 3000 to 10000 nM.

Staying with this experiment, now noted: FLIPR assay, SH-SY5Y native cell line; Table 2; read-out: SH-SY5Y EC50.
`O=C(Cc1ccc(F)cc1)Nc1nc2ccc(F)cn2c1-c1ccc(F)c(F)c1` [Compound 210, N-(3-(3,4-difluorophenyl)-6-fluoroimidazo[1,2-a]pyridin-2-yl)-2-(4-fluorophenyl)acetamide]: the EC50 is less than 500 nM. With `CC(C)(C)CC(=O)Nc1nc2ccc(F)cn2c1-c1cccc(C(C)(C)C#N)c1` [Compound 176, N-(3-(3-(2-cyanopropan-2-yl)phenyl)-6-fluoroimidazo[1,2-a]pyridin-2-yl)-3,3-dimethylbutanamide], the concentration for a half-maximal effect (EC50) is 500 to 3000 nM. For the compound `O=C(CCC(F)(F)F)Nc1nc2ccc(F)cn2c1-c1cccc(Cl)c1` [Compound 285, N-(3-(3-chlorophenyl)-6-fluoroimidazo[1,2-a]pyridin-2-yl)-4,4,4-trifluorobutanamide], the concentration giving a half-maximal response (EC50) was 500 to 3000 nM. For `CC(C)(C)CC(=O)Nc1nc2cc(C(F)(F)F)ccn2c1-c1ccccc1` [Compound 100, 3,3-dimethyl-N-(3-phenyl-7-(trifluoromethyl)imidazo[1,2-a]pyridin-2-yl)butanamide], the EC50 was in the range of 500 to 3000 nM. As for `Cc1ccc2nc(NC(=O)CC(C)(C)C)c(-c3cccc(OC(F)(F)F)c3)n2n1` [Compound 305, 3,3-dimethyl-N-(6-methyl-3-(3-(trifluoromethoxy)phenyl)imidazo[1,2-b]pyridazin-2-yl)butanamide], the EC50 was less than 500 nM. Take `CO[C@H](C(=O)Nc1nc2ccc(F)cn2c1-c1ccc(OC(F)(F)F)cc1)c1ccccc1` [Compound 254, (S)—N-(6-fluoro-3-(4-(trifluoromethoxy)phenyl)imidazo[1,2-a]pyridin-2-yl)-2-methoxy-2-phenyl acetamide]: the EC50 lay within 3000 to 10000 nM.

`CC(C(=O)Nc1nc2cc(C(F)(F)F)ccn2c1-c1ccc(F)cc1)c1ccccc1` (stereo not drawn) [Compound 114, N-(3-(4-fluorophenyl)-7-(trifluoromethyl)imidazo[1,2-a]pyridin-2-yl)-2-phenylpropanamide]: the EC50 is 500 to 3000 nM.

Regarding “2-(3,4-dichlorophenyl)-N-(6-fluoro-3-(4-fluorophenyl)imidazo yl)acetamide [Compound 142]”, the EC50 is less than 500 nM.

As for `Cc1ccc2nc(NC(=O)Cc3ccc(C(F)(F)F)cc3)c(-c3ccc(F)cc3)n2c1` [Compound 186, N-(3-(4-fluorophenyl)-6-methylimidazo[1,2-a]pyridin-2-yl)-2-(4-(trifluoromethyl)phenyl)acetamide], the EC50 is less than 500 nM.

Consider `O=C(Cc1ccc(C(F)(F)F)cc1)Nc1nc2ccc(F)cn2c1-c1cccc(Cl)c1` [Compound 299, N-(3-(3-chlorophenyl)-6-fluoroimidazo[1,2-a]pyridin-2-yl)-2-(4-(trifluoromethyl)phenyl)acetamide], for which the EC50 fell in the range of 500 to 3000 nM. Same read-out and setting: to `CC(CC(=O)Nc1nc2ccccn2c1-c1cccc(C(F)(F)F)c1)C(F)(F)F` (stereo not drawn) [Compound 337, 4,4,4-trifluoro-3-methyl-N-(3-(3-(trifluoromethyl)phenyl)imidazo[1,2-a]pyridin-2-yl)butanamide] belongs 500 to 3000 nM; to `O=C(CC1CCOCC1)Nc1nc2ccc(F)cn2c1-c1ccc(OC(F)(F)F)cc1` [Compound 251, N-(6-fluoro-3-(4-(trifluoromethoxy)phenyl)imidazo[1,2-a]pyridin-2-yl)-2-(tetrahydro-2H-pyran-4-yl)acetamide], 500 to 3000 nM. For `N#Cc1ccc(CC(=O)Nc2nc3ccc(F)cn3c2-c2ccc(F)cc2)cc1` [Compound 137, 2-(4-cyanophenyl)-N-(6-fluoro-3-(4-fluorophenyl)imidazo[1,2-a]pyridin-2-yl)acetamide], the EC50 fell in the range of 500 to 3000 nM.

Turning to `CC(C)(C)CC(=O)Nc1nc2ccc(F)cn2c1-c1cccc(Cl)c1` [Compound 149, N-(3-(3-chlorophenyl)-6-fluoroimidazo[1,2-a]pyridin-2-yl)-3,3-dimethylbutanamide], the EC50 was less than 500 nM. As to `CO[C@@H](C(=O)Nc1nc2ccc(F)cn2c1-c1ccc(OC(F)(F)F)cc1)c1ccccc1` [Compound 253, (R)—N-(6-fluoro-3-(4-(trifluoromethoxy)phenyl)imidazo[1,2-a]pyridin-2-yl)-2-methoxy-2-phenyl acetamide], the EC50 lay in the range of 3000 to 10000 nM. Turning to `O=C(Nc1nc2ccc(F)cn2c1-c1cccc(Cl)c1)C1CCC1` [Compound 335, N-(3-(3-chlorophenyl)-6-fluoroimidazo[1,2-a]pyridin-2-yl)cyclobutanecarboxamide], the EC50 lay within 500 to 3000 nM. Consider `CC(C)(C)CC(=O)Nc1nc2ccc(F)cn2c1-c1ccc(C#N)c(F)c1` [Compound 197, N-(3-(4-cyano-3-fluorophenyl)-6-fluoroimidazo[1,2-a]pyridin-2-yl)-3,3-dimethylbutanamide], for which the EC50 lay within 500 to 3000 nM. The same measure, in the same setting: for `CC(=O)OCC(C)(C)CC(=O)Nc1nc2ccc(F)cn2c1-c1ccc(OC(F)(F)F)cc1` [Compound 191, 4-(6-fluoro-3-(4-(trifluoromethoxy)phenyl)imidazo[1,2-a]pyridin-2-ylamino)-2,2-dimethyl-4-oxobutyl acetate] the value was 3000 to 10000 nM; for `CC(C)(C)CC(=O)Nc1nc2cc(Cl)c(Cl)cn2c1-c1ccc(C(F)(F)F)cc1` [Compound 233, N-(6,7-dichloro-3-(4-(trifluoromethyl)phenyl)imidazo[1,2-a]pyridin-2-yl)-3,3-dimethylbutanamide], less than 500 nM; for `O=C(CC1CCCC1)Nc1nc2ccc(F)cn2c1-c1ccc(OC(F)(F)F)c(F)c1` [Compound 311, 2-cyclopentyl-N-(6-fluoro-3-(3-fluoro-4-(trifluoromethoxy)phenyl)imidazo[1,2-a]pyridin-2-yl)acetamide], less than 500 nM.

Turning to `CC(C)(C)C(F)(F)C(=O)Nc1nc2ccc(F)cn2c1-c1ccc(C(F)(F)F)cc1` [Compound 202, 2,2-difluoro-N-(6-fluoro-3-(4-(trifluoromethyl)phenyl)imidazo[1,2-a]pyridin-2-yl)-3,3-dimethylbutanamide], the EC50 was less than 500 nM. For the compound `CC(CC(=O)Nc1nc2ccc(F)cn2c1-c1cccc(C(F)(F)F)c1)C(F)(F)F` (stereo not drawn) [Compound 282, 4,4,4-trifluoro-N-(6-fluoro-3-(3-(trifluoromethyl)phenyl)imidazo[1,2-a]pyridin-2-yl)-3-methylbutanamide], the EC50 is less than 500 nM.

Turning to `CC(C)(C)CC(=O)Nc1nc2ccc(F)cn2c1-c1ccc(F)c(F)c1` [Compound 212, N-(3-(3,4-difluorophenyl)-6-fluoroimidazo[1,2-a]pyridin-2-yl)-3,3-dimethylbutanamide], the EC50 was less than 500 nM. On to `O=C(Cc1ccc(F)cc1)Nc1nc2ncc(Cl)cn2c1-c1cccc(Cl)c1` [Compound 320, N-(6-chloro-3-(3-chlorophenyl)imidazo[1,2-a]pyrimidin-2-yl)-2-(4-fluorophenyl) acetamide], for which the half-maximal effective concentration (EC50) was in the range of 3000 to 10000 nM.

The same experiment, now with this note: SH-SY5Y native cell line, FLIPR assay (Table 3); read-out: SH-SY5Y EC50.
For the compound `Cc1ccc(-c2c(N(C(=O)CC(C)(C)C)C(=O)CC(C)(C)C)nc3ccc(F)cn23)nc1` [Compound 356, N-(3,3-dimethylbutanoyl)-N-(6-fluoro-3-(5-methylpyridin-2-yl)imidazo[1,2-a]pyridin-2-yl)-3,3-dimethylbutanamide], the EC50 fell in the range of 3000 to 10000 nM. Regarding `O=C(Cc1ccc(F)cc1)Nc1nc2ccc(F)cn2c1-c1nc2ccccc2s1` [Compound 379, N-(3-(benzo[d]thiazol-2-yl)-6-fluoroimidazo[1,2-a]pyridin-2-yl)-2-(4-fluorophenyl)acetamide], the EC50 is 500 to 3000 nM.
